Assay results: patent US9802997B2, “Peptides and combination of peptides for use in immunotherapy against various tumors” (immatics biotechnologies GmbH, priority 2015, dated 2017)

Key:
[1] = test system: CD8+ T cells of healthy HLA-A*02 donors; assay: In vitro immunogenicity: in vitro T-cell priming with aAPCs loaded with peptide/MHC complexes and anti-CD28 antibody, pMHC multimer readout; type: cell-based, human; details: for Wells positive [%]: HLA-A*02 restricted peptides
Description: In order to obtain information regarding the immunogenicity of the TUMAPs of the present invention, the inventors performed investigations using an in vitro T-cell priming assay based on repeated stimulations of CD8+ T cells with artificial antigen presenting cells (aAPCs) loaded with peptide/MHC complexes and anti-CD28 antibody.
In order to perform in vitro stimulations by artificial antigen presenting cells loaded with peptide-MHC complex (pMHC) and anti-CD28 antibody, the inventors first isolated CD8+ T cells from fresh HLA-A*02 leukapheresis products via positive selection using CD8 microbeads (Miltenyi Biotec, Bergisch-Gladbach, Germany) of healthy donors obtained from the University clinics Mannheim, Germany, after informed consent. PBMCs and isolated CD8+ lymphocytes were incubated in T-cell medium (TCM) until use consisting of RPMI-Glutamax (Invitrogen, Karlsruhe, Germany) supplemented with 10% heat inactivated human AB serum (PAN-Biotech, Aidenbach, Germany), 100 U/ml Penicillin/100 μg/ml Streptomycin (Cambrex, Cologne, Germany), 1 mM sodium pyruvate (CC Pro, Oberdorla, Germany), 20 μg/ml Gentamycin (Cambrex). 2.5 ng/ml IL-7 (PromoCell, Heidelberg, Germany) and 10 U/ml IL-2 (Novartis Pharma, Nürnberg, Germany) were also added to the TCM at this step. Generation of pMHC/anti-CD28 coated beads, T-cell stimulations and readout was performed in a highly defined in vitro system using four different pMHC molecules per stimulation condition and 8 different pMHC molecules per readout condition.
The purified co-stimulatory mouse IgG2a anti human CD28 Ab 9.3 (Jung et al., 1987) was chemically biotinylated using Sulfo-N-hydroxysuccinimidobiotin as recommended by the manufacturer (Perbio, Bonn, Germany). Beads used were 5.6 μm diameter streptavidin coated polystyrene particles (Bangs Laboratories, Illinois, USA).
pMHC used for positive and negative control stimulations were A*0201/MLA-001 (peptide […] (SEQ ID NO. 289) from modified Melan-A/MART-1) and A*0201/DDX5-001 ([…] from DDX5, SEQ ID NO. 290), respectively.
800.000 beads/200 μl were coated in 96-well plates in the presence of 4×12.5 ng different biotin-pMHC, washed and 600 ng biotin anti-CD28 were added subsequently in a volume of 200 μl. Stimulations were initiated in 96-well plates by co-incubating 1×10^6 CD8+ T cells with 2×10^5 washed coated beads in 200 μl TCM supplemented with 5 ng/ml IL-12 (PromoCell) for 3 days at 37° C. Half of the medium was then exchanged by fresh TCM supplemented with 80 U/ml IL-2 and incubating was continued for 4 days at 37° C. This stimulation cycle was performed for a total of three times. For the pMHC multimer readout using 8 different pMHC molecules per condition, a two-dimensional combinatorial coding approach was used as previously described (Andersen et al., 2012) with minor modifications encompassing coupling to 5 different fluorochromes. Finally, multimeric analyses were performed by staining the cells with Live/dead near IR dye (Invitrogen, Karlsruhe, Germany), CD8-FITC antibody clone SK1 (BD, Heidelberg, Germany) and fluorescent pMHC multimers. For analysis, a BD LSRII SORP cytometer equipped with appropriate lasers and filters was used. Peptide specific cells were calculated as percentage of total CD8+ cells. Evaluation of multimeric analysis was done using the FlowJo software (Tree Star, Oregon, USA). In vitro priming of specific multimer+CD8+ lymphocytes was detected by comparing to negative control stimulations.

HLA-A*02:01 = HLA-A*02:01 (Homo sapiens, UniProt P04439, D140Y/D185E/D98H/E176V/E277Q/G131W/G231S/I119V/I121R/I166T/I218V/L300P/L318F/N151K/N90K/P208A/P217A/Q86G/Q94H/R138H/R169H/T345S); assay: MHC binding assay (UV-ligand exchange, beta2m ELISA); details: binding to HLA-A*02:01, β2m ELISA
Outline: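 Peptide–MHC complexes formed by UV-ligand exchange, cleaving a UV-sensitive peptide so the test peptide can bind. Exchange yield measured by ELISA: complexes captured on streptavidin-coated wells, diluted 100-fold, detected with HRP anti-β2m (1 h, 37 °C) and TMB at 450 nm, against refolded HLA-A*02:01/MLA-001 standards (15-500 ng/ml).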

[2] = percentage of positive wells among evaluable

| Peptide exchange (MHC class I binding score, peptide exchange yield) (HLA-A*02:01) | Substance | Wells positive [%] [1, 2] | in vitro immunogenicity: wells ([1]; percentage of positive wells among evaluable, HLA-A*02 healthy donors, three stimulation cycles) | in vitro immunogenicity: donors ([1]; percentage of positive donors among evaluable, HLA-A*02 healthy donors, three stimulation cycles) |
| --- | --- | --- | --- | --- |
| +++ (≧50 = +++) | 257 (KLIDHQGLYL; listed as Homo sapiens) [compound 257] | + (<20% = +) | – | – |
| +++ (≧50 = +++) | 260 (ALNESLVEC; listed as Homo sapiens) [compound 260] | + (<20% = +) | – | – |
| ++ (≧20% = ++) | 264 (TLHDQVHLL; listed as Homo sapiens) [compound 264] | + (<20% = +) | – | – |
| +++ (≧50 = +++) | 242 (KLQEEIPVL; listed as Homo sapiens) [compound 242] | + (<20% = +) | – | – |
| ++ (≧20% = ++) | 157 (ILQDGQFLV; listed as Homo sapiens) [compound 157] | + (<20% = +) | – | – |
| +++ (≧50 = +++) | 267 (YLLDMPLWYL; listed as Homo sapiens) [compound 267] | + (<20% = +) | – | – |
| +++ (≧50 = +++) | 263 (SIIEYLPTL; listed as Homo sapiens) [compound 263] | + (<20% = +) | – | – |
| ++ (≧20% = ++) | 254 (ALGDKFLLRV; listed as Homo sapiens) [compound 254] | + (<20% = +) | – | – |
| +++ (≧50 = +++) | 255 (FLMKNSDLYGA; listed as Homo sapiens) [compound 255] | + (<20% = +) | – | – |
| +++ (≧50 = +++) | 233 (SLFESLEYL; listed as Homo sapiens) [compound 233] | + (<20% = +) | – | – |
| +++ (≧50 = +++) | 236 (KMSELQTYV; listed as Homo sapiens) [compound 236] | + (<20% = +) | – | – |
| +++ (≧50 = +++) | 246 (ALAGIVTNV; listed as Homo sapiens) [compound 246] | + (<20% = +) | – | – |

The remaining lines, values behind:

| Substance | Peptide exchange (MHC class I binding score, peptide exchange yield) (HLA-A*02:01) | Wells positive [%] [1, 2] | in vitro immunogenicity: wells ([1]; percentage of positive wells among evaluable, HLA-A*02 healthy donors, three stimulation cycles) | in vitro immunogenicity: donors ([1]; percentage of positive donors among evaluable, HLA-A*02 healthy donors, three stimulation cycles) |
| --- | --- | --- | --- | --- |
| 66 (AMFPDTIPRV; listed as Homo sapiens) [compound 66] | ++ (≧20% = ++) | + (<20% = +) | – | – |
| 97 (KLFEKSTGL; listed as Homo sapiens) [compound 97] | +++ (≧50 = +++) | + (<20% = +) | – | – |
| 121 (ALYVQAPTV; listed as Homo sapiens) [compound 121] | ++ (≧20% = ++) | + (<20% = +) | – | – |
| 77 (ALYGNVQQV; listed as Homo sapiens) [compound 77] | +++ (≧50 = +++) | + (<20% = +) | – | – |
| 89 (SLAETIFIV; listed as Homo sapiens) [compound 89] | +++ (≧50 = +++) | + (<20% = +) | – | – |
| 27 (GLLGKVTSV; listed as Homo sapiens) [compound 27] | +++ (≧50 = +++) | + (<20% = +) | – | – |
| 14 (YTFSGDVQL; listed as Homo sapiens) [compound 14] | +++ (≧50 = +++) | + (<20% = +) | – | – |
| 29 (KMISAIPTL; listed as Homo sapiens) [compound 29] | ++ (≧20% = ++) | + (<20% = +) | – | – |
| 34 (TLNTLDINL; listed as Homo sapiens) [compound 34] | +++ (≧50 = +++) | ++++ (>=70% = ++++) | – | – |
| 101 (SLLEVNEASSV; listed as Homo sapiens) [compound 101] | +++ (≧50 = +++) | + (<20% = +) | – | – |
| 102 (GLYPVTLVGV; listed as Homo sapiens) [compound 102] | +++ (≧50 = +++) | + (<20% = +) | – | – |
| 17 (GLLPSAESIKL; listed as Homo sapiens) [compound 17] | ++++ (≧75% = ++++) | + (<20% = +) | – | – |
| 39 (YLEDGFAYV; listed as Homo sapiens) [compound 39] | +++ (≧50 = +++) | ++++ (>=70% = ++++) | – | – |
| 9 (SLITGQDLLSV; listed as Homo sapiens) [compound 9] | +++ (≧50 = +++) | + (<20% = +) | – | – |
| 287 (KIQEILTQV; listed as Homo sapiens) [compound 287] | – | – | + (<20% = +) | – |
| 4 (VLFGELPAL; listed as Homo sapiens) [compound 4] | +++ (≧50 = +++) | + (<20% = +) | – | – |
| 35 (VIIKGLEEI; listed as Homo sapiens) [compound 35] | ++ (≧20% = ++) | + (<20% = +) | – | – |
| 50 (ILLSVLHQL; listed as Homo sapiens) [compound 50] | +++ (≧50 = +++) | + (<20% = +) | – | – |
| 288 (SLYKGLLSV; listed as Homo sapiens) [compound 288] | – | – | – | ++++ (>=70% = ++++) |
